Experiment [1] relates to S. aureus USA300 LAC. The experiment in a line: Membrane depolarization, DiBAC4(3). It is filed as cell-based, Staphylococcus aureus. The note with it: 12.5 µM. Here is the method: Bacteria surfaces are negative and cationic peptides are able to neutralize the negative charge, thereby reducing membrane potential. To test this possibility, we evaluated the peptides against S. aureus USA300 LAC using a fluorescent indicator dye, the DiBAC4(3) (Figure 5).
The overnight culture of S. aureus USA300 LAC was grown in TSB media to the exponential phase. Cells were then pelleted and washed with PBS twice, and re-suspended in twice the volume of PBS containing 25 mM glucose for 15 min at 37 °C. For membrane depolarization measurements, 250 nM (final concentration) of the dye DiBAC4(3) (bis-(1,3-dibutylbarbituric acid) trimethine oxonol (ANASPEC, Fremont, CA, USA) was added, and vortexed gently. Ninety microliters of the energized bacteria solution were then added in a 96-well microtiter plate (Corning COSTAR). The plate was immediately placed into a FLUOstar Omega (BMG LABTECH Inc., Cary, NC, USA) microplate reader and fluorescence was measured for 20 min. Once the readings are stabilized, 10 μL of peptide solution were added and the fluorescence readings were continued for another 40 min. Measurements were done at an excitation and emission wavelengths of 485 and 520 nm, respectively. Triton X-100 (0.1%) was included as a positive control.

In another experiment the test system is E. coli ML35p. Briefly: Simultaneous outer and inner membrane permeation (nitrocefin / ONPG). The note with it: 3.1 µM. The format is cell-based, Escherichia coli. From the text:
To confirm the mechanism of action, we also performed membrane permeation using a reporter strain of E. coli ML35p. This strain enabled simultaneous monitoring of membrane permeation of both the inner and outer membranes of Gram-negative bacterium E. coli. Both WW295 and WW298 were included in the experiment. […] This is indicated by the sharp development of absorbance at 490 nm for nitrocefin (panel A) and at 420 nm for ONPG (panel B).
The E. coli ML-35p strain was utilized to probe the permeation of both the outer membrane (OM) and inner membrane (IM). This strain was engineered to have two membrane reporters. Nitrocefin is used for detection of OM permeabilization. Nitrocefin is excluded from the periplasm. […] The chromogenic cleavage product was spectrophotometrically monitored at 490 nm. […] However, permeabilization of the IM helps ONPG to enter cytoplasm and get cleaved by cytoplasmic β-galactosidase into o-nitrophenol, which can be detected spectrophotometrically at 420 nm. […] Absorbances at both 490 and at 420 nm were monitored using FLUOstar Omega (BMG, Labtech, NC, USA) simultaneously. After shaking at 100 rpm, readings were taken every 2 min for a total of 40 min at 37 °C. Data were analyzed using the MARS data analysis software provided by the manufacturer and representative plots were made using the GraphPad Prism 7 software.

The test system of experiment [2] is S. aureus USA300 LAC. The experiment in a line: Disruption of 24 h established biofilms (XTT). The note with it: 24 h treatment. The format is cell-based, Staphylococcus aureus. As to the method: We also compared the effects of the peptides on established biofilms (24 h). […] When cells are alive (in the absence of peptide), the cell-permeant calcein-AM dye could enter the cells and gave green color as a consequence of the removal of acetoxymethyl (AM) esters by intracellular esterase (Figure 7A). When the cells were dead due to membrane damage by the peptide, the red dye ethidium homodimer (non-membrane permeable) could enter the cell and become red by binding to nucleic acids (Figure 7B).
The antibiofilm activity of the peptide against 24 h established biofilms was evaluated as previously described. In short, S. aureus USA300 LAC (10^5 CFU/mL) was made from exponential phase bacteria in TSB media and 180 μL were distributed to each well of the microtiter plate (Corning Costar Cat No. 3595, Amsterdam, The Netherlands). The plates were incubated at 37 °C for 24 h to form a biofilm. Culture treated with water served as a positive control while media without bacterial inoculation served as the negative control. Media were then pipetted out and the attached biofilms were washed with 1× PBS to remove the planktonic bacteria. Each well of the plate was then filled with 20 μL of 10× peptide solution and 180 μL of fresh TSB media and the plates were further incubated at 37 °C for 24 h. Media were then pipetted out and the wells were washed with 1× PBS to remove planktonic cells. The live cells in biofilms were estimated by XTT assay as mentioned above.

In experiment [3] the test system is S. aureus USA300 LAC. Briefly: Inhibition of biofilm attachment (XTT). It is filed as cell-based, Staphylococcus aureus. Conditions: 12.5 µM; 1 h, XTT. From the text: Antimicrobial effects of the peptides are different on diverse forms of bacteria. The free and motile forms cultivated in laboratories are the planktonic bacteria onto which the peptides and antibiotics can have direct effects. However, the activity of the microbicides can be reduced to the biofilm forms where bacteria are less exposed and hidden inside the shield. The development of the biofilms starts with the attachment of the individual cells on the substratum followed by biofilm growth and maturation into more solid biomass. We tested the ability of WW295 and WW298 in fighting the biofilms of S. aureus USA300 LAC at the two stages. […] These 96-well commercial plates were pre-treated commercially with tissue culture to enhance cell adhesion.
This experiment was performed to measure the ability of the peptide to inhibit bacterial attachment, the initial step for biofilm formation. In short, an overnight culture of S. aureus USA300 was grown in TSB media to an optical density (600 nm) of ∼1.0. […] Live cells in the biofilms were then quantitated using XTT [2,3-bis(2-methyloxy-4-nitro-5-sulfophenyl)-2H-tertazolium-5-carboxanilide] assay by following the manufacturer’s instructions with modifications. […] Absorbance at 450 nm (only media with XTT containing wells served as the blank) was obtained using a Chromate^TM microtiter plate reader. […]
(Tetrazolium dyes change colour on reduction, which living cells bring about.)

Structures are written as SMILES.

For the compound `CCCCCCCCCC(=O)N[C@@H](Cc1c[nH]c2ccccc12)C(=O)N[C@H](CC(N)=O)C(=O)N[C@@H](CC(=O)O)C(=O)N[C@@H]1C(=O)NCC(=O)N[C@@H](CCCN)C(=O)N[C@@H](CC(=O)O)C(=O)N[C@H](C)C(=O)N[C@@H](CC(=O)O)C(=O)NCC(=O)N[C@H](CO)C(=O)N[C@@H]([C@H](C)CC(=O)O)C(=O)N[C@@H](CC(=O)c2ccccc2N)C(=O)O[C@@H]1C` [daptomycin, reference compound], the “membrane depolarization (DiBAC4(3) fluorescence)” value with S. aureus USA300 LAC [1] was “significantly less membrane depolarization”. Also, the “outer and inner membrane permeation (nitrocefin 490 nm, ONPG 420 nm)” value with E. coli ML35p is “poor in membrane permeation”. The “disruption of established biofilms (24 h)” value in the experiment with S. aureus USA300 LAC [2] (3.1 µM) is listed as “much less effective than WW298”; with S. aureus USA300 LAC [2] (6.25 µM), “eradicating almost all the established biofilm”. Also, in the experiment with S. aureus USA300 LAC [3], the “inhibition of MRSA adherence” value is ~ 50%.

These data come from paper PMC7600788, “Sequence Permutation Generates Peptides with Different Antimicrobial and Antibiofilm Activities” (Pharmaceuticals, 2020).
